Among the test systems are COLO 205 colon; PC-3 prostate; T-47D breast; U251 CNS; HCC-2998 colon; MDA-MB-435; SK-OV-3 ovarian; SNB-75 CNS; HCT-15 colon; K-562 leukemia.
Experiment in all cases: growth of human tumour cells (NCI), 48 h

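Tested at 5 concentrations; 48 h exposure; 96-well plates; endpoints linearly interpolated, else capped at highest concentration. The concentration for full growth arrest is given as TGI.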

Consider `O=C1N2CCC[C@H]2CS1(=O)=O`, for which the TGI in the assay on COLO 205 colon was found to be 28.9 µM; in the assay on PC-3 prostate it was 31.4 µM; in the assay on T-47D breast it was 32.9 µM; in the assay with U251 CNS, 30 µM; in the assay on HCC-2998 colon, 32.2 µM; in the assay with MDA-MB-435, 36.7 µM. In addition, the TGI with SK-OV-3 ovarian was over 100 µM; in the assay on SNB-75 CNS, 41.2 µM; with HCT-15 colon, 29.4 µM; in the assay with K-562 leukemia it was 32.1 µM.
For `CCOC(=O)c1cc2c3c(c(C(C)=O)c(OC)c2[nH]1)N(C(=O)CC)CC3`, the TGI with COLO 205 colon is 41.8 µM; with PC-3 prostate, 72.7 µM; in the assay with T-47D breast, 45.4 µM; in the assay with U251 CNS, 47.6 µM; with HCC-2998 colon it was 76.5 µM; with MDA-MB-435, 50.3 µM. Also, the TGI was over 100 µM in the assay on SK-OV-3 ovarian, 57.1 µM in the assay with SNB-75 CNS, 34.2 µM in the assay on HCT-15 colon and 50.5 µM in the assay with K-562 leukemia.
`O=C1C=CC2(O[C@H](C3CCCCC3)[C@@H](C3CCCCC3)O2)C(SC(=O)c2ccccc2)C1` (stereo not given in full): the TGI amounted to 15 µM with COLO 205 colon; 7.43 µM in the assay with PC-3 prostate; 1.94 µM in the assay with T-47D breast; 6.86 µM in the assay with U251 CNS; 5.52 µM with HCC-2998 colon; 5.29 µM in the assay with MDA-MB-435. For the same compound, the TGI in the assay with SK-OV-3 ovarian is 33.5 µM; with SNB-75 CNS, 14.4 µM; in the assay with HCT-15 colon, 9.47 µM; with K-562 leukemia it was 4.73 µM.
As to `C=C(CN(CC)CC)C1(c2ccccc2)CC2(CCCC2)C(=O)O1` (stereo not given), the TGI in the assay with COLO 205 colon, in the assay on PC-3 prostate, in the assay on T-47D breast, in the assay on U251 CNS, in the assay with HCC-2998 colon and in the assay with MDA-MB-435 was over 100 µM in each case. Besides, the TGI in the assay with SK-OV-3 ovarian is over 100 µM; in the assay with SNB-75 CNS, 92.6 µM; with HCT-15 colon, over 100 µM; in the assay on K-562 leukemia, over 100 µM.
As to `Cc1cc2nc3ccccc3n2c2ccccc12`, the TGI in the assay with COLO 205 colon, in the assay on PC-3 prostate, in the assay with T-47D breast, in the assay on U251 CNS, with HCC-2998 colon and with MDA-MB-435 was over 10 µM in each case. Further, the TGI in the assay on SK-OV-3 ovarian, in the assay with SNB-75 CNS, in the assay on HCT-15 colon and with K-562 leukemia was over 10 µM in each case.
`COc1ccc(OC)c2c(C)ccnc12`: the TGI is over 83.3 µM in the assay with COLO 205 colon; over 100 µM with PC-3 prostate; over 100 µM in the assay on T-47D breast; over 100 µM with U251 CNS; over 100 µM with HCC-2998 colon; over 100 µM in the assay on MDA-MB-435. In addition, the TGI in the assay on SK-OV-3 ovarian, with SNB-75 CNS, in the assay on HCT-15 colon and with K-562 leukemia was over 100 µM in each case.
Take `O=C1CC(c2ccsc2)n2cccc21` (stereo not given): the TGI in the assay with COLO 205 colon, in the assay on PC-3 prostate, in the assay on T-47D breast, in the assay on U251 CNS, with HCC-2998 colon and with MDA-MB-435 was over 100 µM in each case. Also, the TGI in the assay with SK-OV-3 ovarian, in the assay on SNB-75 CNS, in the assay with HCT-15 colon and in the assay with K-562 leukemia was over 100 µM throughout.
With `Oc1c(Cl)cc2cc1-c1cc(cc(Cl)c1O)CCc1c(cc(Cl)c(O)c1Cl)-c1cc(Cl)c(c(Cl)c1O)/C=C\2`, the TGI in the assay with COLO 205 colon was determined as 16.4 µM; in the assay with PC-3 prostate it was 20.3 µM; with T-47D breast, 19.2 µM; with U251 CNS, 45.6 µM; in the assay with HCC-2998 colon, 13.9 µM; in the assay on MDA-MB-435, 21.7 µM. Further, the TGI with SK-OV-3 ovarian is 18 µM; in the assay with SNB-75 CNS, 17.6 µM; in the assay on HCT-15 colon it was 17.4 µM; with K-562 leukemia it was over 50 µM.
As to `Oc1ccc(Cl)cc1-c1cc(-c2ccccc2)nc(=S)[nH]1`, the TGI is over 100 µM in the assay on COLO 205 colon; over 100 µM with PC-3 prostate; over 100 µM in the assay on T-47D breast; 39.8 µM with U251 CNS; over 100 µM with HCC-2998 colon; over 100 µM in the assay with MDA-MB-435. Moreover, the TGI in the assay on SK-OV-3 ovarian is over 100 µM; with SNB-75 CNS it was 59.2 µM; in the assay with HCT-15 colon it was over 100 µM; in the assay with K-562 leukemia, over 100 µM.
On to `Oc1ccc2ccccc2c1OCc1nnc(CCCCCCCCc2nnc(COc3c(O)ccc4ccccc34)n2Nc2ccccc2)n1Nc1ccccc1`, for which the TGI is 1.28 µM with COLO 205 colon; over 100 µM with PC-3 prostate; over 100 µM in the assay with T-47D breast; over 58.9 µM in the assay with U251 CNS; 31 µM in the assay on HCC-2998 colon; 31.8 µM in the assay on MDA-MB-435. Moreover, the TGI with SK-OV-3 ovarian was over 100 µM; in the assay with SNB-75 CNS, over 100 µM; with HCT-15 colon, 77.7 µM; in the assay on K-562 leukemia it was over 100 µM.
On to `Cc1cc(C)nc(NS(=O)(=O)c2ccc(NNc3c4ccccc4nc4c(C(=O)Nc5ccc(S(=O)(=O)Nc6cc(C)on6)cc5)cccc34)cc2)n1`, for which the TGI in the assay with COLO 205 colon was over 100 µM; in the assay on PC-3 prostate it was over 100 µM; with T-47D breast it was over 100 µM; in the assay on U251 CNS, 79.2 µM; in the assay with HCC-2998 colon it was 50.2 µM; with MDA-MB-435, over 100 µM. The TGI was over 100 µM in the assay on SK-OV-3 ovarian, 86 µM in the assay with SNB-75 CNS, over 100 µM with HCT-15 colon and 87.2 µM in the assay on K-562 leukemia.
With `O=C1c2ccccc2C2(c3ccc(F)cc3)NCCN12` (stereo not given), the TGI in the assay on COLO 205 colon, with PC-3 prostate, with T-47D breast, in the assay on U251 CNS, in the assay on HCC-2998 colon and with MDA-MB-435 was over 100 µM in each case. In addition, the TGI in the assay on SK-OV-3 ovarian, with SNB-75 CNS, with HCT-15 colon and in the assay on K-562 leukemia was over 100 µM throughout.
Turning to `CCOC(=O)c1c(N2CCCC2)[nH]c(=O)c(C(c2ccc(N(C)C)cc2)c2c(O)c(C(=O)OCC)c(N3CCCC3)[nH]c2=O)c1O`, the TGI with COLO 205 colon, with PC-3 prostate, in the assay with T-47D breast, in the assay on U251 CNS, in the assay on HCC-2998 colon and in the assay with MDA-MB-435 was over 100 µM in each case. The TGI with SK-OV-3 ovarian, in the assay with SNB-75 CNS, in the assay on HCT-15 colon and in the assay with K-562 leukemia was over 100 µM throughout.

The record behind these values is PubChem BioAssay (NCI).
